# Columns and labels:
# Format in all cases: functional
# [1] = system: Pectinophora gossypiella; assay: Antifeedant activity against Pectinophora gossypiella second-instar larvae assessed as 90 % protection after 48 hrs
# [2] = system: Spodoptera frugiperda; assay: Antifeedant activity against Spodoptera frugiperda second-instar larvae assessed as 50 % protection after 48 hrs
# [3] = system: Spodoptera frugiperda; assay: Antifeedant activity against Spodoptera frugiperda second-instar larvae assessed as 90 % protection after 48 hrs
# [4] = system: Pectinophora gossypiella; assay: Antifeedant activity against Pectinophora gossypiella second-instar larvae assessed as 50 % protection after 48 hrs
smiles,measurement,setting,value
CC(=O)O[C@H]1[C@H](OC(C)=O)[C@]2(C)C(=CC[C@H]2c2ccoc2)[C@]2(C)C(=O)C[C@H]3C(C)(C)O[C@H]4C[C@H](O)C(=O)[C@]43[C@@H]12 [ZUMKETOL],Activity,[1],2 µg/mL
same,Activity,[2],3 µg/mL
same,Activity,[3],16 µg/mL
same,Activity,[4],0.5 µg/mL

# Reference: ChEMBL document CHEMBL1142584, “Insect antifeedants from Croton jatrophoides: structures of zumketol, zumsenin, and zumsenol” (2005)
